According to ChEMBL document CHEMBL5634144, “Design, synthesis and biological evaluation of novel DCLK1 inhibitor containing purine skeleton for the treatment of pancreatic cancer” (Eur J Med Chem, 2023):
pIC50: −log10 of the molar value. Calls of active or inactive are those of the source. No cut-off for these calls is given here.

Experiments:
[1] = biological target: T1, Serine/threonine-protein kinase DCLK1 (Homo sapiens) (UniProt O15075); test: Inhibition of DCLK1 (unknown origin) at 200 nM preincubated for 10 mins followed by substrate/ATP addition measured after 60 mins by mobility shift assay relative to control; details: time 70.0 min
T1 sequence (whole entry): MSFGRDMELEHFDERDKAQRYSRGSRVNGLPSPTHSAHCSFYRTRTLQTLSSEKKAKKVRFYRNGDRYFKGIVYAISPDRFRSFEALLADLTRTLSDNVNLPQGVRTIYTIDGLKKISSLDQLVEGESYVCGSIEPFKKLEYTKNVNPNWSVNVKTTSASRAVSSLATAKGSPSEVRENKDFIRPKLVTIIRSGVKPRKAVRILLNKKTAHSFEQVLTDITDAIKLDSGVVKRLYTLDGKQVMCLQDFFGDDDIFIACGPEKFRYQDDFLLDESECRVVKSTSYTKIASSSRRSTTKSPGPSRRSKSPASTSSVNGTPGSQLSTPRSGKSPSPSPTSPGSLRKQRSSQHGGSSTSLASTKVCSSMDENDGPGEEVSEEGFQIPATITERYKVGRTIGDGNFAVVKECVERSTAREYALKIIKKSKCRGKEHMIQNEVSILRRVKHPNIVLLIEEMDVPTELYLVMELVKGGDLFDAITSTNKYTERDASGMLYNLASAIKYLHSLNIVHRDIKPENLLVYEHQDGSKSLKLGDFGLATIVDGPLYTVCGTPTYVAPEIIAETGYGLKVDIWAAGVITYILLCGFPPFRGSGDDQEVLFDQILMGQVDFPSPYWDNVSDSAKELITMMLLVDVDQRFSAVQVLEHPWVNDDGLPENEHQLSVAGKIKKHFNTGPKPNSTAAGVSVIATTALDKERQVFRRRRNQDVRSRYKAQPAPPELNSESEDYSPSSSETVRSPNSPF

[2] = test system: SW1990; test: Antiproliferative activity against human SW1990 cells assessed as inhibition cell proliferation incubated for 6 days by MTT assay; assay type: functional, cell-based; details: SW1990, 144 h
[3] = test system: HCT-116; test: Antiproliferative activity against human HCT-116 cells assessed as inhibition cell proliferation incubated for 6 days by MTT assay; assay type: functional, cell-based; details: HCT-116, 144 h
[4] = test system: CAKI-1; test: Antiproliferative activity against human CAKI-1 cells assessed as inhibition cell proliferation incubated for 6 days by MTT assay; assay type: functional, cell-based; details: CAKI-1, 144 h
[5] = test system: SW1990; test: Potency index, ratio of DCLK1-IN-1 IC50 to test compound IC50 for human SW1990 cells assessed as inhibition cell proliferation incubated for 6 days by MTT assay; assay type: functional; details: time 6 day
[6] = test system: SW1990; test: Inhibition of colony formation of human SW1990 cells at 2 uM incubated for 6 days by crystal violet staining based analysis; assay type: functional, cell-based; details: time 6.0 day
[7] = test system: SW1990; test: Induction of apoptosis in human SW1990 cells assessed as viable cells at 0.5 uM incubated for 6 days by Annexin V/PI staining based flow cytometry (reference value: 92.93 %); assay type: functional; details: SW1990, 144 h, time 6 day, read-out: Activity
[8] = test system: SW1990; test: Induction of apoptosis in human SW1990 cells assessed as early apoptotic cells at 0.5 uM incubated for 6 days by Annexin V/PI staining based flow cytometry (reference value: 4.55 %); assay type: functional; details: time 6 day
[9] = test system: SW1990; test: Induction of apoptosis in human SW1990 cells assessed as late apoptotic cells at 0.5 uM incubated for 6 days by Annexin V/PI staining based flow cytometry (reference value: 2.01 %); assay type: functional; details: time 6 day
[10] = test system: SW1990; test: Induction of apoptosis in human SW1990 cells assessed as necrotic cells at 0.5 uM incubated for 6 days by Annexin V/PI staining based flow cytometry (reference value: 0.50 %); assay type: functional; details: time 6 day
[11] = test system: SW1990; test: Induction of apoptosis in human SW1990 cells assessed as viable cells at 1 uM incubated for 6 days by Annexin V/PI staining based flow cytometry (reference value: 92.93 %); assay type: functional; details: SW1990, 144 h, time 6 day, read-out: Activity
[12] = test system: SW1990; test: Induction of apoptosis in human SW1990 cells assessed as early apoptotic cells at 1 uM incubated for 6 days by Annexin V/PI staining based flow cytometry (reference value: 4.55 %); assay type: functional; details: time 6 day
[13] = test system: SW1990; test: Induction of apoptosis in human SW1990 cells assessed as late apoptotic cells at 1 uM incubated for 6 days by Annexin V/PI staining based flow cytometry (reference value: 2.01 %); assay type: functional; details: time 6 day
[14] = test system: SW1990; test: Induction of apoptosis in human SW1990 cells assessed as necrotic cells at 1 uM incubated for 6 days by Annexin V/PI staining based flow cytometry (reference value: 0.50 %); assay type: functional; details: time 6 day
[15] = test system: SW1990; test: Induction of apoptosis in human SW1990 cells assessed as viable cells at 2 uM incubated for 6 days by Annexin V/PI staining based flow cytometry (reference value: 92.93 %); assay type: functional; details: SW1990, 144 h, time 6 day, read-out: Activity
[16] = test system: SW1990; test: Induction of apoptosis in human SW1990 cells assessed as early apoptotic cells at 2 uM incubated for 6 days by Annexin V/PI staining based flow cytometry (reference value: 4.55 %); assay type: functional; details: time 6 day
[17] = test system: SW1990; test: Induction of apoptosis in human SW1990 cells assessed as late apoptotic cells at 2 uM incubated for 6 days by Annexin V/PI staining based flow cytometry (reference value: 2.01 %); assay type: functional; details: time 6 day
[18] = test system: SW1990; test: Induction of apoptosis in human SW1990 cells assessed as necrotic cells at 2 uM incubated for 6 days by Annexin V/PI staining based flow cytometry (reference value: 0.50 %); assay type: functional; details: time 6 day
[19] = test system: SW1990; test: Induction of cell cycle arrest at G0/G1 phase in human SW1990 cells at 0.5 uM incubated for 6 days by PI staining based flow cytometry (reference value: 49.65 %); assay type: functional; details: time 6 day
[20] = test system: SW1990; test: Induction of cell cycle arrest at S phase in human SW1990 cells at 0.5 uM incubated for 6 days by PI staining based flow cytometry (reference value: 21.20 %); assay type: functional; details: time 6 day
[21] = test system: SW1990; test: Induction of cell cycle arrest at G2/M phase in human SW1990 cells at 0.5 uM incubated for 6 days by PI staining based flow cytometry (reference value: 29.15 %); assay type: functional; details: time 6 day
[22] = test system: SW1990; test: Induction of cell cycle arrest at G0/G1 phase in human SW1990 cells at 1 uM incubated for 6 days by PI staining based flow cytometry (reference value: 49.65 %); assay type: functional; details: time 6 day
[23] = test system: SW1990; test: Induction of cell cycle arrest at S phase in human SW1990 cells at 1 uM incubated for 6 days by PI staining based flow cytometry (reference value: 21.20 %); assay type: functional; details: time 6 day
[24] = test system: SW1990; test: Induction of cell cycle arrest at G2/M phase in human SW1990 cells at 1 uM incubated for 6 days by PI staining based flow cytometry (reference value: 29.15 %); assay type: functional; details: time 6 day
[25] = test system: SW1990; test: Induction of cell cycle arrest at G0/G1 phase in human SW1990 cells at 2 uM incubated for 6 days by PI staining based flow cytometry (reference value: 49.65 %); assay type: functional; details: time 6 day

Q: Which inhibition [1] does the source give for `COc1cc(N2CCN(C)CC2)ccc1Nc1nc(Nc2ccccc2S(=O)(=O)C(C)C)c2nc[nH]c2n1` here?
A: Its inhibition is 29.8%.

Q: And the pIC50 [2]?
A: The pIC50 was 6.22.

Q: What about the pIC50 [3] of the same compound?
A: The pIC50 was 5.52.

Q: And the pIC50 [4]?
A: Its pIC50 is 5.00.

Q: What about the “Ratio IC50” value [5] of the same compound?
A: The value was 22.

Q: What about the inhibition [6] of the same compound?
A: The inhibition was “Active”.

Q: And the viability at 0.5 µM [7]?
A: The viability at 0.5 µM was 78.5%.

Q: And the Activity [8]?
A: The Activity was 9.19%.

Q: And the Activity [9]?
A: The Activity was 6.77%.

Q: What about the Activity [10] of the same compound?
A: The Activity was 5.58%.

Q: And the viability at 1 µM [11]?
A: Its viability at 1 µM is 65.3%.

Q: And the Activity [12]?
A: The Activity was 19.46%.

Q: And the Activity [13]?
A: Its Activity is 7.06%.

Q: And the Activity [14]?
A: The Activity was 8.2%.

Q: What about the viability at 2 µM [15] of the same compound?
A: Its viability at 2 µM is 61%.

Q: What about the Activity [16] of the same compound?
A: Its Activity is 21.76%.

Q: And the Activity [17]?
A: Its Activity is 11.39%.

Q: What about the Activity [18] of the same compound?
A: Its Activity is 5.86%.

Q: What about the Activity [19] of the same compound?
A: Its Activity is 52.79%.

Q: What about the Activity [20] of the same compound?
A: Its Activity is 19.66%.

Q: What about the Activity [21] of the same compound?
A: Its Activity is 27.55%.

Q: What about the Activity [22] of the same compound?
A: The Activity was 56.78%.

Q: And the Activity [23]?
A: Its Activity is 19.75%.

Q: What about the Activity [24] of the same compound?
A: Its Activity is 23.47%.

Q: What about the Activity [25] of the same compound?
A: Its Activity is 63.14%.
